Like-named read-outs stand apart in the source and are kept apart here.
Tests used:
[1] = tested on: HAdV-37 virions (attachment to HCE cells); experiment: Cell-binding assay: attachment of 35S-labeled HAdV-37 virions to HCE cells; type: cell-based; conditions: read-out: IC50, preventing attachment of HAdV-37 virions to HCE cells
Description: In order to investigate the efficiency of the newly synthesized compounds (ME0385, ME0386, ME0407, ME0408, ME0461, and ME0462) to prevent the attachment of HAdV-37 virions to HCE cells, cell-binding assays based on ^35S-labeled virions were performed. Based on previous studies ME0322, sialic acid and GD1a glycan were used as reference compounds (Nilsson et al N. Nat. Med. 2011, 17, 105 and Spjut et al Angew. Chem. Int. Ed. 2011, 50, 6519). The assays were carried out (see below for further details) essentially as previously described (Arnberg et al J. Virol. 2000, 74, 42 and Arnberg et al J. Virol. 2000, 74, 7691).
In brief, ^35S-labeled HAdV-37 virions were pre-incubated with or without the trivalent sialic acid derivatives, GD1a glycan and sialic acid at various concentrations. The mixtures were incubated with HCE cells and unbound virions were then washed away. Finally, the cell-associated radioactivity was counted by using a scintillation counter.
S-labeled HAdV-37 virions (5×10^8/well) were pre-incubated in binding buffer (50 μL; BB: Dulbecco's modified eagle's medium containing 1% BSA (Roche AB, Stockholm, Sweden) and HEPES (20 mM, EuroClone, Milan, Italy), pH 7.5) with or without the trivalent sialic acid derivatives, GD1a glycan or sialic acid at various concentrations (cf. FIG. 1a) in a 96-well microplate at +4° C. for 1 h. These mixtures were then added to HCE cells prepelleted (1×10^5/well) in a 96-well microplate. After re-suspension, the mixtures were incubated at +4° C. for 1 h. Finally, unbound virions were washed away with BB and the cell-associated radioactivity was counted by using a Wallac 1409 scintillation counter.

[2] = tested on: HAdV-37 virions (infection of HCE cells); experiment: Infection assay: infection of HCE cells by HAdV-37 virions (immunofluorescence); type: cell-based; conditions: for IC50: Human adenovirus sp., HCE, 44 h of infection, immunofluorescence, read-out: IC50, preventing infection of HCE cells by HAdV-37 virions; for prevention of infection of HCE cells by HAdV-37 virions compared with ME0322: in words
Description: In order to confirm the results from the cell-binding assays and to further evaluate our set of compounds, infection experiments were performed (FIGS. 1b, 3a and 3b). The assays were carried out (see below for further details) essentially as previously described ((Arnberg et al. J. Virol. 2000, 74, 42 and Arnberg et al. J. Virol. 2000, 74, 7691)).
In brief, unlabeled virions were pre-incubated with or without the trivalent sialic acid derivatives, GD1a glycan or sialic acid at various concentrations. These mixtures were then added to HCE cells and incubated at +4° C. Unbound virions were washed away, the resulting mixtures were incubated at +37° C. and a synchronized infection—all virions enter the cells simultaneously—was then obtained. After 44 h of infection, the cells were rinsed, fixed, incubated with rabbit polyclonal anti-HAdV-37 antibodies prior to being washed and stained. Finally, the cells were washed and examined by immunofluorescence microscopy.
7×10^7 non-labeled virions/well in 48-well plates were pre-incubated in serum free growth media (2004), with or without the trivalent sialic acid derivatives, GD1a glycan or sialic acid at various concentrations (cf. FIG. 2B) at +4° C. After 1 h, the mixtures were transferred to new 48-well plates containing 1×10^5 adherent HCE cells/well and incubated at +4° C. After 1 h, unbound virions were washed away with serum free growth media and the resulting mixtures were incubated with growth media containing 1% fetal bovine serum (FBS) at +37° C. After 44 h of infection, the cells were rinsed in PBS, fixed with cold (−20° C.) 99% methanol for 10 min and incubated with rabbit polyclonal anti-HAdV-37 antibodies diluted 1:200 in PBS (pH 7.4) at room temperature. After 1 h, the cells were washed in PBS and stained with FITC-labeled swine anti-rabbit IgG antibodies (Dako-cytomation, Glostrup, Denmark) diluted 1:100 in PBS for 1 h at room temperature. Finally, the cells were washed in PBS and examined in an immunofluorescence microscope (Axiovert 25, Carl Zeiss, Germany; 10× magnification).

[3] = target: HAdV-37 fiber knob (Human adenovirus D37, UniProt Q64823); experiment: Surface plasmon resonance (SPR), immobilized HAdV-37 fiber knobs; type: binding, human adenovirus HAdV-37; conditions: for binding mode with HAdV-37 fiber knob: SPR
Description: Finally, ME0385, ME0386 and ME0322 were investigated in surface plasmon resonance (SPR) experiments and their respective binding affinities (Kds) for immobilized HAdV-37 fiber knobs were determined (see below for further details). […] It is also worth noting the influence of the HAdV-37 fiber knob construct on the Kd values.
The kinetic measurements were performed using a surface plasmon resonance BIAcore T100 instrument. HAdV-37 knob proteins were covalently coupled to a CMS sensorchip using the amine coupling kit (GE Healthcare), to a concentration of 14-15 ng/mm^2 (˜15000RU). Binding of the trivalent sialic acid conjugates ME0322, ME0385 and ME0386 to the immobilized knob was performed in 10 mM HEPES, 0.15 M NaCl and 0.05% P20 pH 7.4 (1×HBS-EP+, GE Healthcare). The concentrations of trivalent sialic acid used were 400, 200, 100, 50 (twice), 25, 12.5 (twice), 6.25, 3.125, 1.56 and 0.78 μM. The binding affinities (Kds) were calculated using Biacore T100 evaluation software.

[4] = tested on: HAdV-37 virions (infection of HCE cells); conditions: cited from earlier work
[5] = tested on: HAdV-37 virions (attachment to HCE cells); conditions: reported in the art (background), cited from earlier work
[6] = 35S-labeled virions pre-incubated with compound, +4° C., HCE cells

| Compound | IC50 ([1]; Human adenovirus sp., HCE) | IC50 [2] | Kd [3] | binding mode with HAdV-37 fiber knob [3] | IC50 [1, 6] | also measured |
| --- | --- | --- | --- | --- | --- | --- |
| CC(=O)N[C@H]1[C@H]([C@H](O)[C@H](O)CO)OC(O)(C(=O)O)C[C@@H]1O (some centres unmarked) [sialic acid] | 1200 µM |  |  |  |  |  |
| CC(=O)NC1C(O)CC(OCCn2cc(CN(Cc3cn(CCOC4(C(=O)O)CC(O)C(NC(C)=O)C(C(O)C(O)CO)O4)nn3)Cc3cn(CCOC4(C(=O)O)CC(O)C(NC(C)=O)C(C(O)C(O)CO)O4)nn3)nn2)(C(=O)O)OC1C(O)C(O)CO [ME0385, Tris ((1-(2-O-(5-N-acetamido-3,5-dideoxy-D-glycero-α-D-galacto-2-nonylopyranosylonic acid))-2-oxoethyl-1H-1,2,3-triazol-4-yl)methyl)amine] | 0.107 µM | 0.166 µM | 76 µM | one-to-one binding mode |  |  |
| CC(=O)N[C@@H]1C(O)C[C@](OCCCn2cc(CN(Cc3cn(CCCO[C@@]4(C(=O)O)CC(O)[C@H](NC(C)=O)C(C(O)C(O)CO)O4)nn3)Cc3cn(CCCO[C@]4(C(=O)O)CC(O)[C@@H](NC(C)=O)C(C(O)C(O)CO)O4)nn3)nn2)(C(=O)O)OC1C(O)C(O)CO (stereo partly drawn) [ME0386, Tris ((1-(2-O-(5-N-acetamido-3,5-dideoxy-D-glycero-α-D-galacto-2-nonylopyranosylonic acid))-3-oxopropyl-1H-1,2,3-triazol-4-yl)methyl)amine] | 0.04 µM | 0.118 µM | 69 µM | one-to-one binding mode |  |  |
| Tris ((4-(2-O-(5-N-acetamido-3,5-dideoxy-D-glycero-α-D-galacto-2-nonulopyranosylonic acid))-2-oxoethyl-1H-1,2,3-triazol-1-yl)ethyl)amine [ME0461] |  |  |  |  | 0.376 µM | prevention of infection of HCE cells by HAdV-37 virions compared with ME0322 [2]: more efficiently than ME0322 |
| CC(=O)N[C@@H]1C(O)C[C@](OCc2cn(CCN(CCn3cc(CO[C@]4(C(=O)O)CC(O)[C@@H](NC(C)=O)C(C(O)C(O)CO)O4)nn3)CCn3cc(CO[C@]4(C(=O)O)CC(O)[C@@H](NC(C)=O)C(CO)(C(O)CO)O4)nn3)nn2)(C(=O)O)OC1C(O)C(O)CO (stereo partly drawn) [ME0462, Tris ((4-(2-O-(5-N-acetamido-3,5-dideoxy-D-glycero-α-D-galacto-2-nonulopyranosylonic acid))-2-oxomethyl-1H-1,2,3-triazol-1-yl)ethyl)amine] | 0.0014 µM | 0.0021 µM | 9.5 µM |  |  | prevention of infection of HCE cells by HAdV-37 virions compared with ME0322 [2]: more efficiently than ME0322 |
| Tris ((1-(2-O-(5-N-propanoylamido-3,5-dideoxy-D-glycero-α-D-galacto-2-nonylopyranosylonic acid))-2-oxoethyl-1H-1,2,3-triazol-4-yl)methyl)amine [ME0408] |  |  |  |  | 4.5 µM |  |
| CCC(=O)N[C@H]1[C@H]([C@H](O)[C@H](O)CO)O[C@@](OCCCn2cc(CN(Cc3cn(CCCO[C@]4(C(=O)O)C[C@H](O)[C@@H](NC(=O)CC)[C@H]([C@H](O)[C@H](O)CO)O4)nn3)Cc3cn(CCCO[C@]4(C(=O)O)C[C@H](O)[C@@H](NC(=O)CC)[C@H]([C@H](O)[C@H](O)CO)O4)nn3)nn2)(C(=O)O)C[C@@H]1O [ME0407] |  |  |  |  | 23.4 µM |  |
| CC(=O)NC1C(O)CC(OCCCCCNc2c(NCCN(CCNc3c(NCCCCCOC4(C(=O)O)CC(O)C(NC(C)=O)C(C(O)C(O)CO)O4)c(=O)c3=O)CCNc3c(NCCCCCOC4(C(=O)O)CC(O)C(NC(C)=O)C(C(O)C(O)CO)O4)c(=O)c3=O)c(=O)c2=O)(C(=O)O)OC1C(O)C(O)CO (centres unmarked) [ME0322] |  |  |  | one-to-one binding mode |  | IC50 ([4]; infection of HCE cells by HAdV-37, earlier estimate, read-out: half maximal inhibitory concentration, previously estimated): 0.38 µM; inhibiting infection of HCE cells by HAdV-37, compared with HSA-conjugate ([4]; reported in the art (background)): far more potent than the HSA-conjugate; Kd ([3]; read-out: binding affinity (Kd) for immobilized HAdV-37 fiber knobs, BIAcore T100, HBS-EP+ pH 7.4): 126 µM; potency compared with natural sialic acid monosaccharide ([5]; assay not specified): four orders of magnitude more potent than the natural sialic acid monosaccharide; preventing binding of the virus, compared with 17-valent sialic acid-HSA conjugate [5]: as effective as 17-valent sialic acid-HSA conjugate |

Source: US10011628B2, “Multivalent sialic acid derivatives” (priority 2013, dated 2018)
